From patent US7880007B2, “Bicyclic substituted phenyl piperidine modulators of muscarinic receptors” (Vertex Pharmaceuticals Incorporated, priority 2004, dated 2011)

Legend:
Assay type in all cases: cell-based
[1] = target: T1, M2 muscarinic receptor (Homo sapiens, UniProt P08172); assay: Functional mobilization of intracellular calcium (FLIPR), M2-CHO cells; details: for M2 Activity: M2-CHO cells, calcium mobilization (FLIPR)
T1 construct: expressed in transfected cells; host or cells: CHO (M2-CHO)
T1 sequence (P08172 1-466): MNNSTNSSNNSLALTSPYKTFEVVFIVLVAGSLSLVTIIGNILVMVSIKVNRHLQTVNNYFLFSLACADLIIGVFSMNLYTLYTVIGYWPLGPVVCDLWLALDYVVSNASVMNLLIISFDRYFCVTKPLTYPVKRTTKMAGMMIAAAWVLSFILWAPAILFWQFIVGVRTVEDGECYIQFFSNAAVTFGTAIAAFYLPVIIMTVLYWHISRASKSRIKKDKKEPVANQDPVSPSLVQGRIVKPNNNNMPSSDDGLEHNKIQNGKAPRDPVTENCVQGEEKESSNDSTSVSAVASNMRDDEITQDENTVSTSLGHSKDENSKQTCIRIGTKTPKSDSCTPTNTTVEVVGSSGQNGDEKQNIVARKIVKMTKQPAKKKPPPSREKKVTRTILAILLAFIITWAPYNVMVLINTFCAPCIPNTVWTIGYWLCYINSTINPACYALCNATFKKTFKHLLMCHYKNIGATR
Summary of the method: (§1)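 CHO cells expressing human M1–M4 receptors loaded with Fluo-3 AM or Calcium 3 dye (1 mM probenecid, pH 7.4); 0.5% DMSO final. Agonist mode: compound added directly; antagonist mode: 15 min pre-incubation or co-application, then carbachol at EC80. Fluorescence read 60 s on FLIPR; efficacy relative to carbachol maximum.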

[2] = target: T2, M3 muscarinic receptor (Homo sapiens, UniProt P20309); assay: Functional mobilization of intracellular calcium (FLIPR), M3-CHO cells; details: for M3 Activity: M3-CHO cells, calcium mobilization (FLIPR)
T2 construct: expressed in transfected cells; host or cells: CHO (M3-CHO)
T2 sequence (P20309 whole entry): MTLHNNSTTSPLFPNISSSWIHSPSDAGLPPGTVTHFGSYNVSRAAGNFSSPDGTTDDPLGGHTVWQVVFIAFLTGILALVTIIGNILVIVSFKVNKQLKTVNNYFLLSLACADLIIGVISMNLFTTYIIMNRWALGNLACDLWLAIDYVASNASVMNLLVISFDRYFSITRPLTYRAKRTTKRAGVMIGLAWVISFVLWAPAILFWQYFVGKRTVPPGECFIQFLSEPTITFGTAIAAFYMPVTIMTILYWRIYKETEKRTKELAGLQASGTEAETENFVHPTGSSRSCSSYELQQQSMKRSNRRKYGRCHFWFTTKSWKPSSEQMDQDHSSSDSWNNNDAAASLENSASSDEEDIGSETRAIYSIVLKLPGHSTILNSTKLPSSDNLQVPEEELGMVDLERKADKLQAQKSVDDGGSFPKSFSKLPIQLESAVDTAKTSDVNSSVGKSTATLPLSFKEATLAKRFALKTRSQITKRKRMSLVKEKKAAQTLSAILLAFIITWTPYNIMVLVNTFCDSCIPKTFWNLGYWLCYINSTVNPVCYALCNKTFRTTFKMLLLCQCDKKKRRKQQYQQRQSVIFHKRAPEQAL
Summary of the method: as §1

[3] = target: T3, M1 muscarinic receptor (Homo sapiens, UniProt P11229); assay: Functional mobilization of intracellular calcium (FLIPR), M1-CHO cells; details: for M1 Activity: M1-CHO cells, calcium mobilization (FLIPR)
T3 construct: expressed in transfected cells; host or cells: CHO (M1-CHO)
T3 sequence (P11229 1-460): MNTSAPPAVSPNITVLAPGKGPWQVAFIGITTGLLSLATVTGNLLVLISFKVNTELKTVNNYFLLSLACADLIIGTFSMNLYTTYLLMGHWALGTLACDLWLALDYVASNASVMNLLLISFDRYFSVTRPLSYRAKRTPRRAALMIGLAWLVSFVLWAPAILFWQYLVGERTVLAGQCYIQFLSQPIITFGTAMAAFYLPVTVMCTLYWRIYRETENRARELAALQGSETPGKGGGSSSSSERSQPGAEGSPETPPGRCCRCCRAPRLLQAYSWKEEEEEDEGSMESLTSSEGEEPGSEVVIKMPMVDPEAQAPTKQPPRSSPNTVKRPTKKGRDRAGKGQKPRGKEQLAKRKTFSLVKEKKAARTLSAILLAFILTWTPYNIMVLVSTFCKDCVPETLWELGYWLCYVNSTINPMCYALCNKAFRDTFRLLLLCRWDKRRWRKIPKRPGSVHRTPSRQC
Summary of the method: as §1

[4] = target: T4, M4 muscarinic receptor (Homo sapiens, UniProt P08173); assay: Functional mobilization of intracellular calcium (FLIPR), M4-CHO cells; details: for M4 Activity: M4-CHO cells, calcium mobilization (FLIPR)
T4 construct: expressed in transfected cells; host or cells: CHO (M4-CHO)
T4 sequence (P08173 1-479): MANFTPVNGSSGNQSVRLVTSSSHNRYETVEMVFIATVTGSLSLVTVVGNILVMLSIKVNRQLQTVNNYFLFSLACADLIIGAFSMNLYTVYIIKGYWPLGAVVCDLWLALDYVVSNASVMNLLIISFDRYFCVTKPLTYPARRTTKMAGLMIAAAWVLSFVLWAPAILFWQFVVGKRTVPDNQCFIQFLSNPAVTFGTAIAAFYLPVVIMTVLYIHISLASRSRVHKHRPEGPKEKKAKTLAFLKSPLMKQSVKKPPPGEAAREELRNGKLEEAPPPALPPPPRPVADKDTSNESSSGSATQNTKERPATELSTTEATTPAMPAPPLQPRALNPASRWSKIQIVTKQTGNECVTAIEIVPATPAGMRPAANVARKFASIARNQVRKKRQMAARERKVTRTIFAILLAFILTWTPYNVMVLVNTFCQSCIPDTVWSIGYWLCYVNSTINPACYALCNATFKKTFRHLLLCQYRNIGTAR
Summary of the method: as §1

[5] = 100% efficacy = maximum response obtained with the Carbachol control

COc1cccc(C(=O)COc2ccccc2C2CCN([C@H]3C[C@H]4CC[C@H]3C4)CC2)c1 [Compound 119]
Emax [1, 5]: 25 to 100%
M2 Activity [1]: + (activity was measured to be greater than 5.0 μM)
Emax [2, 5]: < 25%
M3 Activity [2]: + (activity was measured to be greater than 5.0 μM)
Emax [3, 5]: 25 to 100%
M1 Activity [3]: + (activity was measured to be greater than 5.0 μM)
Emax [4, 5]: 25 to 100%
M4 Activity [4]: ++ (activity was measured to be from 1.0 μM to 5.0 μM)

COc1ccc(-c2ccc(C(F)(F)F)cc2)cc1C1CCN([C@H]2C[C@H]3CC[C@H]2C3)CC1 [Compound 120]
Emax [1, 5]: < 25%
M2 Activity [1]: + (activity was measured to be greater than 5.0 μM)
Emax [2, 5]: < 25%
M3 Activity [2]: + (activity was measured to be greater than 5.0 μM)
Emax [3, 5]: 25 to 100%
M1 Activity [3]: + (activity was measured to be greater than 5.0 μM)
Emax [4, 5]: 25 to 100%
M4 Activity [4]: + (activity was measured to be greater than 5.0 μM)

COc1ccc(Cl)cc1C1CCN(CC2CCOCC2)CC1 [Compound 121]
Emax [1, 5]: < 25%
M2 Activity [1]: + (activity was measured to be greater than 5.0 μM)
Emax [2, 5]: < 25%
M3 Activity [2]: + (activity was measured to be greater than 5.0 μM)
Emax [3, 5]: 25 to 100%
M1 Activity [3]: ++ (activity was measured to be from 1.0 μM to 5.0 μM)
Emax [4, 5]: 25 to 100%
M4 Activity [4]: +++ (activity was measured to be less than 1.0 μM)

CCOC(=O)N1CCC(CN2CCC(F)(c3cc(Cl)ccc3OC)CC2)CC1 [Compound 122]
Emax [1, 5]: 25 to 100%
M2 Activity [1]: ++ (activity was measured to be from 1.0 μM to 5.0 μM)
Emax [2, 5]: < 25%
M3 Activity [2]: + (activity was measured to be greater than 5.0 μM)
Emax [3, 5]: 25 to 100%
M1 Activity [3]: ++ (activity was measured to be from 1.0 μM to 5.0 μM)
Emax [4, 5]: 25 to 100%
M4 Activity [4]: +++ (activity was measured to be less than 1.0 μM)

COc1ccc(Cl)cc1C1(OC)CCN(CC2CCOCC2)CC1 [Compound 123]
Emax [1, 5]: < 25%
M2 Activity [1]: + (activity was measured to be greater than 5.0 μM)
Emax [2, 5]: < 25%
M3 Activity [2]: + (activity was measured to be greater than 5.0 μM)
Emax [3, 5]: 25 to 100%
M1 Activity [3]: ++ (activity was measured to be from 1.0 μM to 5.0 μM)
Emax [4, 5]: < 25%
M4 Activity [4]: + (activity was measured to be greater than 5.0 μM)

COc1ccc(-c2ccncc2)cc1C1CCN([C@@H]2C[C@@H]3CC[C@H]2C3)CC1 [Compound 124, 4-(3-(1-((1S,2R,4R)-bicyclo[2.2.1]heptan-2-yl)piperidin-4-yl)-4-methoxyphenyl) pyridine]
Emax [1, 5]: < 25%
M2 Activity [1]: + (activity was measured to be greater than 5.0 μM)
Emax [2, 5]: < 25%
M3 Activity [2]: + (activity was measured to be greater than 5.0 μM)
Emax [3, 5]: < 25%
M1 Activity [3]: + (activity was measured to be greater than 5.0 μM)
Emax [4, 5]: < 25%
M4 Activity [4]: + (activity was measured to be greater than 5.0 μM)

COc1ccc(-c2ccc(OC(F)(F)F)cc2)cc1C1CCN([C@H]2C[C@H]3CC[C@H]2C3)CC1 [Compound 126]
Emax [1, 5]: < 25%
M2 Activity [1]: + (activity was measured to be greater than 5.0 μM)
Emax [2, 5]: < 25%
M3 Activity [2]: + (activity was measured to be greater than 5.0 μM)
Emax [3, 5]: 25 to 100%
M1 Activity [3]: + (activity was measured to be greater than 5.0 μM)
Emax [4, 5]: 25 to 100%
M4 Activity [4]: + (activity was measured to be greater than 5.0 μM)

O=C(COc1ccccc1C1CCN([C@H]2C[C@H]3CC[C@H]2C3)CC1)c1ccc(N2CCCC2)cc1 [Compound 127]
Emax [1, 5]: 25 to 100%
M2 Activity [1]: ++ (activity was measured to be from 1.0 μM to 5.0 μM)
Emax [2, 5]: < 25%
M3 Activity [2]: + (activity was measured to be greater than 5.0 μM)
Emax [3, 5]: 25 to 100%
M1 Activity [3]: ++ (activity was measured to be from 1.0 μM to 5.0 μM)
Emax [4, 5]: 25 to 100%
M4 Activity [4]: +++ (activity was measured to be less than 1.0 μM)

COc1ccc(-c2ccc(C(=O)N3CCCCC3)cc2)cc1C1CCN([C@H]2C[C@H]3CC[C@H]2C3)CC1 [Compound 128]
Emax [1, 5]: < 25%
M2 Activity [1]: + (activity was measured to be greater than 5.0 μM)
Emax [2, 5]: < 25%
M3 Activity [2]: + (activity was measured to be greater than 5.0 μM)
Emax [3, 5]: < 25%
M1 Activity [3]: + (activity was measured to be greater than 5.0 μM)
Emax [4, 5]: < 25%
M4 Activity [4]: ++ (activity was measured to be from 1.0 μM to 5.0 μM)

COc1ccc(-c2ccc(S(=O)(=O)N3CCCC3)cc2)cc1C1CCN(C2CC3CCC(C3)C2)CC1 (stereo not shown) [Compound 129]
Emax [1, 5]: < 25%
M2 Activity [1]: + (activity was measured to be greater than 5.0 μM)
Emax [2, 5]: < 25%
M3 Activity [2]: + (activity was measured to be greater than 5.0 μM)
Emax [3, 5]: < 25%
M1 Activity [3]: + (activity was measured to be greater than 5.0 μM)
Emax [4, 5]: 25 to 100%
M4 Activity [4]: + (activity was measured to be greater than 5.0 μM)

COc1ccc(Cl)cc1C1CCN(C2CCC(=NOC(C)(C)C)CC2)CC1 (stereo not shown) [Compound 130]
M2 Efficacy [1, 5]: + (efficacy was calculated to be less than 25%)
M2 Activity [1]: + (activity was measured to be greater than 5.0 μM)
M3 Efficacy [2, 5]: + (efficacy was calculated to be less than 25%)
M3 Activity [2]: + (activity was measured to be greater than 5.0 μM)
M1 Efficacy [3, 5]: ++ (efficacy was calculated to be from 100% to 25%)
M1 Activity [3]: ++ (activity was measured to be from 1.0 μM to 5.0 μM)
M4 Efficacy [4, 5]: ++ (efficacy was calculated to be from 100% to 25%)
M4 Activity [4]: +++ (activity was measured to be less than 1.0 μM)
